Non-standard residues stand in square brackets, D forms with d. Residues, ends and D or L forms follow the SMILES beside them.
Test system: hot plate response
Assay: Hot plate test (central analgesia)
Type: in vivo
Details: mouse hot plate test, even at doses of 100mg/kg
Description: It was thought that non-polar peptides pass more easily into the central nervous system than polar peptides by traversing the blood-brain barrier. […] This test is standard and known to persons skilled in the art. The test detects chemicals that exert a centrally mediated analgesic response.
The term "ED50" as shown in table 1 for the PBQ writhing assays is defined as the dose of drug which induces a 50% reduction in the number of writhes observed compared to the control.
PBQ (phenylbenzoquinone) induced writhing in mice is an assessment of both central and peripheral analgesia. For experimental protocol see Sigmund et al., Proc. Soc. Exp. Biol. Med., 95, p. 729 (1957). Central analgesia was determined by the inhibition of a hot plate response in mice. For experimental protocol see G. Woolfe and A. Macdonald, J. Pharmacol. Exp. Ther., 80, p.300 (1944). Assays measuring opioid receptor binding affinities for µ and δ receptors as well as GPI and MVD assays were determined through experimental protocol set out in Schiller et al., Biophys. Res. Commun., 85, p.1322 (1975). […]
The mice were individually evaluated for reaction time on the hot plate. […]
For each time reading, the average reaction time of the control group was multiplied by 1.5. […] The number of analgesic mice in a group determined the analgesic percentage of the compound for this reading.

With C[C@@H](NC(=O)[C@@H](N)Cc1ccc(O)cc1)C(=O)N[C@@H](Cc1ccccc1)C(=O)N[C@@H](Cc1ccccc1)C(N)=O [TAPP, H-Tyr-D-Ala-Phe-Phe-NH2] (H-Y[dA]FF-NH2) the analgesic effect was “lack of analgesic effect”.

— patent EP0746567B1, “NOVEL OPIOID PEPTIDES FOR THE TREATMENT OF PAIN AND USE THEREOF” (AstraZeneca AB, priority 1994, dated 2002)
